Data set [1] is described as follows: PK, intravenous administration. The data set is classed as in vivo, male Sprague Dawley rats. The settings on record: male, Sprague Dawley, plasma, rat, intravenous, dose 1 mg/kg. On the procedure:
Pharmacokinetic parameters were determined in male Sprague Dawley rats (Charles River, UK, 250-300 g; or Vital River Laboratory Animal Technology Co Ltd, Beijing, China, 7-9 weeks old). Animals were individually housed during the study and maintained under a 12 h light/dark cycle. Animals had free access to food and water except that orally dosed animals were food deprived overnight prior to the study. For intravenous administration, compounds were formulated as a solution in water or DMSO:PBS [10:90] in 2 mL/kg dosing volume and administered via tail vein. For oral administration, compounds were formulated as a solution in water or DMSO:water [10:90] in 5 mL/kg dosing volume and administered orally. Serial blood samples (about 120-300 μL) were taken from each animal at each of 8 time-points post dose (0.083, 0.25, 0.5, 1, 2, 4, 8 and 24 h). Samples were held on ice for no longer than 30 minutes before centrifugation (10,000 rpm (8,385 g) for 3 minutes; or 5,696 rpm (3,000 g) for 15 minutes) for plasma generation. Plasma was frozen on dry ice prior to bioanalysis. PK parameters were generated from LC-MS/MS data using Dotmatics or Phoenix WinNonlin 6.3 software.

The target of data set [2] is T1, NLRP3 (Homo sapiens (Human), UniProt Q96P20). The data set can be described thus: THP-1 cells pyroptosis assay (LPS + nigericin, resazurin read-out). Conditions: 1 μg/ml LPS, 5 μM nigericin. The data set is classed as cell-based. A digest of the protocol:
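LPS-primed (1 μg/ml) human THP-1 cells in serum-free RPMI were exposed to compound (8-point half-log series, top dose as printed "10M") for 3 h at 37 °C, then to nigericin 5 μM for 1 h. Remaining viability was read by resazurin (100 μM, 1-2 h) fluorescence, and IC50 came from 4-parameter variable-slope regression.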
On the technique in general: Resazurin is reduced to fluorescent resorufin, in cell work by metabolically active cells.

The target of data set [3] is T1, NLRP3. The data set is described as follows: Human whole blood IL1β release assay (LPS + nigericin). The data set is classed as cell-based. Conditions: human whole blood, 1 μg/ml LPS, nigericin, IL-1β release; read-out: HWB IC50. How it is done: For systemic delivery, the ability to inhibit NLRP3 when the compounds are present within the bloodstream is of great importance. For this reason, the NLRP3 inhibitory activity of a number of compounds in human whole blood was investigated in accordance with the following protocol.
Human whole blood in Li-heparin tubes was obtained from healthy donors from a volunteer donor panel. • 1. Plate out 80 μl of whole blood containing 1 μg/ml of LPS in 96-well, clear bottom cell culture plate (Corning #3585) • 2. Add 10 μl compound (8 points half-log dilution with 10 μM top dose) or vehicle (DMSO 0.1% FAC) to the appropriate wells • 3. Incubate for 3 hrs at 37° C., 5% CO2 • 4. Add 10 μl nigericin (Sigma #N7143) ([…]) to all wells • 5. Incubate for 1 hr at 37° C., 5% CO2 • 6. At the end of the incubation period, spin plates at 30×g for 5 mins to pellet cells and remove 20 μl of supernatant and add to 96-well v-bottom plates for IL-1β analysis (note: these plates containing the supernatants can be stored at −80° C. to be analysed at a later date) • 7. IL-1β was measured according to the manufacturer protocol (Perkin Elmer-AlphaLisa IL-Kit A[220F-5000) • 8. IC50 data is fitted to a non-linear regression equation (log inhibitor vs response-variable slope 4-parameters)

Counter-ions that a name gives are not always drawn.

T1 sequence (Q96P20 whole entry): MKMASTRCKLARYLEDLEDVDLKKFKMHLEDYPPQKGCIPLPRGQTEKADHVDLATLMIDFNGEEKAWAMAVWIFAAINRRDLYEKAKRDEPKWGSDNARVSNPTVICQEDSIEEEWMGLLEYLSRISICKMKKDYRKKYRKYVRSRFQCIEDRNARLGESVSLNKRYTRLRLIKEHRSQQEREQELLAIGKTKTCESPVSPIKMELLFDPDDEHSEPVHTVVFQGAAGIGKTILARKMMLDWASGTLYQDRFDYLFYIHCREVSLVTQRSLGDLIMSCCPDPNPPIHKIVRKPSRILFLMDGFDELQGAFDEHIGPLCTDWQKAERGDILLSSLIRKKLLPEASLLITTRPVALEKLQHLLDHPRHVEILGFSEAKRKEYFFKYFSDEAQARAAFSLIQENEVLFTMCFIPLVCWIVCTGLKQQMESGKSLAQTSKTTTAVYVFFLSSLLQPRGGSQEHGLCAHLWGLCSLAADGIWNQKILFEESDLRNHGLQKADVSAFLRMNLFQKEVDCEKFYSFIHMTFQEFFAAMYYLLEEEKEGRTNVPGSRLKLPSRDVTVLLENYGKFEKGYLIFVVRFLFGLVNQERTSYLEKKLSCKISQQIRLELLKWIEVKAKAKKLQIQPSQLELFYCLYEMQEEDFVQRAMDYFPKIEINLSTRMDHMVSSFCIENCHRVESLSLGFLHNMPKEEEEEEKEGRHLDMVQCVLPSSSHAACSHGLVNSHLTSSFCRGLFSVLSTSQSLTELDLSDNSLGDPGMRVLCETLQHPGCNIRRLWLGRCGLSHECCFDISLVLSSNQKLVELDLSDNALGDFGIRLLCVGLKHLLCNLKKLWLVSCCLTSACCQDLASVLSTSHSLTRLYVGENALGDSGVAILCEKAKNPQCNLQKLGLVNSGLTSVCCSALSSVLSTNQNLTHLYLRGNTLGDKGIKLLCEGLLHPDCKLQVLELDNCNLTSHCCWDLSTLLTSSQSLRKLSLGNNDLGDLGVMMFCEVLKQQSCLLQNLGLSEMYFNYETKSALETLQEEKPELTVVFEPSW

Take `CN1CCC(S(=O)(=O)NC(=O)Nc2c3c(cc4c2CCC4)CCC3)CC1` [Example 1, N-((1,2,3,5,6,7-Hexahydro-s-indacen-4-yl)carbamoyl)-1-methylpiperidine-4-sulfonamide, potassium salt]: the exposure (AUC) in data set [1] (read-out: AUC) was found to be 1950 ng·h/mL. Also, in data set [1] (read-out: Cl), the clearance amounted to 8.5 mL/min/kg. Moreover, the half-life in data set [1] (read-out: T1/2 (converted)) was 1.2 h. For the same molecule, in data set [1] (read-out: Vdss), the Vd is 0.58 L/kg. Further, the IC50 in data set [2] and in data set [3] was 1 to 10 µM in each case.
With `CC(C(F)F)N1CC(S(=O)(=O)NC(=O)Nc2c3c(cc4c2CCC4)CCC3)C1` (stereo not shown) [Example 131, 1-(1,1-Difluoropropan-2-yl)-N-((1,2,3,5,6,7-hexahydro-s-indacen-4-yl)carbamoyl)azetidine-3-sulfonamide, potassium salt], the IC50 is under 1 µM in data set [2] and 1 to 10 µM in data set [3].
The like results for `C#CCN1CC(S(=O)(=O)NC(=O)Nc2c3c(cc4c2CCC4)CCC3)C1` [Example 133, N-((1,2,3,5,6,7-Hexahydro-s-indacen-4-yl)carbamoyl)-1-(prop-2-yn-1-yl)azetidine-3-sulfonamide, potassium salt] were, in that order, under 1 µM and under 1 µM.
As for `O=C(Nc1c2c(cc3c1CCC3)CCC2)NS(=O)(=O)C1CN(CCCO)C1` [Example 134, N-((1,2,3,5,6,7-Hexahydro-s-indacen-4-yl)carbamoyl)-1-(3-hydroxypropyl)azetidine-3-sulfonamide, potassium salt], the figures for the IC50 in data set [2] and in data set [3] were under 1 µM and 1 to 10 µM, respectively.
Turning to `CC(C)(C)CN1CC(S(=O)(=O)NC(=O)Nc2c3c(cc4c2CCC4)CCC3)C1` [Example 135, N-((1,2,3,5,6,7-Hexahydro-s-indacen-4-yl)carbamoyl)-1-neopentylazetidine-3-sulfonamide, potassium salt], the values for the half-inhibitory concentration (IC50) in data set [2] and in data set [3] were under 1 µM and 1 to 10 µM, respectively.
Taken in the same sequence, the figures for `CC(O)CN1CC(S(=O)(=O)NC(=O)Nc2c3c(cc4c2CCC4)CCC3)C1` (stereo not shown) [Example 137, N-((1,2,3,5,6,7-Hexahydro-s-indacen-4-yl)carbamoyl)-1-(2-hydroxypropyl)azetidine-3-sulfonamide, potassium salt] were under 1 µM and 1 to 10 µM.
As to `O=C(Nc1c2c(cc3c1CCC3)CCC2)NS(=O)(=O)C1CN(CCCCO)C1` [Example 138, N-((1,2,3,5,6,7-Hexahydro-s-indacen-4-yl)carbamoyl)-1-(4-hydroxybutyl)azetidine-3-sulfonamide, potassium salt], the half-maximal inhibitory concentration (IC50) in data set [2] and in data set [3] was under 1 µM each time.
As to `Cn1ccc(CN2CC(S(=O)(=O)NC(=O)Nc3c4c(cc5c3CCC5)CCC4)C2)cc1=O` [Example 141, N-((1,2,3,5,6,7-Hexahydro-s-indacen-4-yl)carbamoyl)-1-((1-methyl-2-oxo-1,2-dihydropyridin-4-yl)methyl)azetidine-3-sulfonamide, potassium salt], the concentration for half-maximal inhibition (IC50) is under 1 µM in data set [2] and 1 to 10 µM in data set [3].
In the case of `O=C(Nc1c2c(cc3c1CCC3)CCC2)NS(=O)(=O)C1CN(CC2CCOC2)C1` (stereo not shown) [Example 144, N-((1,2,3,5,6,7-Hexahydro-s-indacen-4-yl)carbamoyl)-1-((tetrahydrofuran-3-yl)methyl)azetidine-3-sulfonamide, potassium salt], the results for the IC50 in data set [2] and in data set [3] were under 1 µM and 1 to 10 µM, respectively.
Take `O=C(Nc1c2c(cc3c1CCC3)CCC2)NS(=O)(=O)C1CN(CC2CCCO2)C1` (stereo not shown) [Example 145, N-((1,2,3,5,6,7-Hexahydro-s-indacen-4-yl)carbamoyl)-1-((tetrahydrofuran-2-yl)methyl)azetidine-3-sulfonamide, potassium salt]: the IC50 in data set [2] was under 1 µM; in data set [3], 1 to 10 µM.
Take `O=C(Nc1c2c(cc3c1CCC3)CCC2)NS(=O)(=O)C1CN(CCO)C1` [Example 152, 1-(2-Hydroxyethyl)-N-((1,2,3,5,6,7-hexahydro-s-indacen-4-yl)carbamoyl)azetidine-3-sulfonamide, potassium salt]: the IC50 in data set [2] and in data set [3] was under 1 µM each time.
As for `COc1cc(-c2cc(F)cc(C(C)C)c2NC(=O)NS(=O)(=O)C2CN(C(C)C)C2)ccn1` [Example 158, N-((4-Fluoro-2-isopropyl-6-(2-methoxypyridin-4-yl)phenyl)carbamoyl)-1-isopropylazetidine-3-sulfonamide], the IC50 in data set [2] and in data set [3] was under 1 µM each time.
Take `COc1cc(-c2ccc3c(c2NC(=O)NS(=O)(=O)C2CN(C(C)C)C2)CCC3)ccn1` [Example 159, 1-Isopropyl-N-((5-(2-methoxypyridin-4-yl)-2,3-dihydro-1H-inden-4-yl)carbamoyl)azetidine-3-sulfonamide]: the IC50 in data set [2] and in data set [3] was under 1 µM in each case.
For `COc1cc(-c2cc(F)cc(C(C)C)c2NC(=O)NS(=O)(=O)C2CN(C3CCC3)C2)ccn1` [Example 162, 1-Cyclobutyl-N-((4-fluoro-2-isopropyl-6-(2-methoxypyridin-4-yl)phenyl)carbamoyl)azetidine-3-sulfonamide], the half-inhibitory concentration (IC50) in data set [2] and in data set [3] was under 1 µM throughout.
Take `COc1cc(-c2ccc3c(c2NC(=O)NS(=O)(=O)C2CN(C4CCC4)C2)CCC3)ccn1` [Example 163, 1-Cyclobutyl-N-((5-(2-methoxypyridin-4-yl)-2,3-dihydro-1H-inden-4-yl)carbamoyl)azetidine-3-sulfonamide]: the half-inhibitory concentration (IC50) in data set [2] and in data set [3] was under 1 µM throughout.
Turning to `CCN1CC(S(=O)(=O)NC(=O)Nc2c(-c3ccnc(OC)c3)ccc3c2CCC3)C1` [Example 167, 1-Ethyl-N-((5-(2-methoxypyridin-4-yl)-2,3-dihydro-1H-inden-4-yl)carbamoyl)azetidine-3-sulfonamide], the half-maximal inhibitory concentration (IC50) in data set [2] and in data set [3] was under 1 µM in each case.
As to `COc1cc(-c2ccc3c(c2NC(=O)NS(=O)(=O)C2CN(Cc4cccnc4)C2)CCC3)ccn1` [Example 170, N-((5-(2-Methoxypyridin-4-yl)-2,3-dihydro-1H-inden-4-yl)carbamoyl)-1-(pyridin-3-ylmethyl)azetidine-3-sulfonamide], the IC50 in data set [2] and in data set [3] was 1 to 10 µM in each case.
With `CC(C)c1cc(F)cc(-c2ccnc(C#N)c2)c1NC(=O)NS(=O)(=O)c1ccc(=O)n(C(C)C)c1` [Example 172, N-((2-(2-cyanopyridin-4-yl)-4-fluoro-6-isopropylphenyl)carbamoyl)-1-isopropyl-6-oxo-1,6-dihydropyridine-3-sulfonamide], the IC50 in data set [2] and in data set [3] was under 1 µM throughout.
Turning to `COc1cc(-c2cc(F)cc(C(C)C)c2NC(=O)NS(=O)(=O)c2ccc(=O)n(C(C)C)c2)ccn1` [Example 173, N-((4-Fluoro-2-isopropyl-6-(2-methoxypyridin-4-yl)phenyl)carbamoyl)-1-isopropyl-6-oxo-1,6-dihydropyridine-3-sulfonamide], the IC50 in data set [2] and in data set [3] was under 1 µM each time.
In the case of `CC(C)n1cc(S(=O)(=O)NC(=O)Nc2c3c(cc4c2CCC4)CCC3)ncc1=O` [Example 181, N-((1,2,3,5,6,7-Hexahydro-s-indacen-4-yl)carbamoyl)-4-isopropyl-5-oxo-4,5-dihydropyrazine-2-sulfonamide, sodium salt], the IC50 in data set [2] and in data set [3] was under 1 µM in each case.
Consider `CC(C)n1cc(S(=O)(=O)NC(=O)Nc2c3c(cc4c2CCC4)CCC3)ccc1=O` [Example 185, N-((1,2,3,5,6,7-Hexahydro-s-indacen-4-yl)carbamoyl)-1-isopropyl-6-oxo-1,6-dihydropyridine-3-sulfonamide, sodium salt], for which the IC50 in data set [2] is under 1 µM; in data set [3], 1 to 10 µM.

One may read the AUC as concentration integrated over time. Usually IC50 stands for the point on the concentration scale where inhibition reaches its midpoint.
